Holding throughout (format): in vivo, maize
The test system of one assay is non-transgenic gametes. The assay can be described thus: Field application of herbicide to hemizygous glyphosate resistant plants at V12-V19; crosses, progeny seedlings sprayed, survivors counted, chi square of segregation ratios. The method, then: The elimination of non-transgenic gametes was also tested at the V12-V19 stages. Meiosis sorted the transgene of a diploid hemizygous microsporophyte or macrosporophyte into one-half of the gametes. The resulting transgenic construct contained a gene conferring plant resistance or tolerance to a specific herbicide, namely glyphosate. Application of the herbicide treatments at various growth phases eliminated gametes lacking the transgenic construct.
Glyphosate treatments included: V12, V17, V19, V15+V17, and V17+V19. Each application, included splits 3 quarts/A. Only resistant plants were sprayed. Glufosinate treatments included: V12, V17, V18, V19, V15+V17, and V17+V19. Each application, included splits 1.5 quarts/A. Only resistant plants were sprayed.
Pollination of the sprayed resistant plants included: 4 selfed, 4 pollinations from unsprayed resistant, 4 pollinations from susceptible. Pollination of the unsprayed resistant plants included: 4 selfed, 4 pollinations from sprayed resistant, 4 pollinations from susceptible. […]
Survivors were counted and chi square analysis performed to determine whether segregation ratios deviated from the null hypothesis (e.g., 75:25 resistant phenotype for selfs or crosses within the resistant hemizygous hybrids, 50:50 resistant phenotype for crosses between resistant and susceptible hybrids, or 100% mortality for susceptible selfed seed).

The test system of the next assay is wild type pollen. The assay can be described thus: Treated heterozygous plants crossed onto wild type inbred; progeny leaf dip test (rag doll, 2% v/v RoundUp Ultra). An excerpt:
(§1) Four row plots of a heterozygous inbred for glyphosate resistance were established. At the V10, V12, V14 and V10+V14 stages of plant development, glyphosate was broadcast to the center two rows. The WeatherMax glyphosate formulation was applied at 0, 1.6 and 3.2 l/Ha, such rates corresponding to 0, 1 and 2 times the normal commercial rates in corn production. To assure there was no glyphosate drift on the non-treated controls, non-treated plants were separated by 16 border rows.
(§2) A series of crosses were made from the treated plants to identify the gamete rouging effects of glyphosate on both pollen and ovules. To characterize the effects on pollen, heterozygous plants treated with glyphosate were crossed onto a wild type inbred. To characterize the effect of glyphosate on ovules, non-treated wild type pollen was crossed to heterozygous plants treated with glyphosate. Finally, the treated heterozygous plants were selfed and tested for zygosity via quantitative PCR.
(§3) The progeny of the various crosses from Example 2 were evaluated by two methods. In the first method, 25 seeds per replication (4 replications in total) were planted into rag dolls and grown at 25° C. in darkness four days. After this time, the rag dolls were transferred to a greenhouse to allow the shoots to turn green. After four days in the greenhouse, seedlings for each rag doll were dipped in a 2% v/v solution of RoundUp Ultra (concentration corresponding to common concentrations in spray applications at the field level). After one week, individual plants were rated as normal, dead or abnormal. Normal plants were assumed to carry the gene for tolerance to glyphosate, dead plants were assumed to be wild type.
The crosses separated the effects of glyphosate on pollen and ovule gametes. To separate effects on pollen, heterozygous plants were sprayed with glyphosate and pollen collected from treated plants was crossed onto homozygous wild type plants. […]

Another assay has as its system wild type ovules. The assay can be described thus: Non-treated wild type pollen crossed to treated heterozygous plants; progeny leaf dip test.
Description: as §1, §2, §3
The effects of glyphosate on wild type ovules were less pronounced than for pollen gametes (as expressed in FIG. 8). In the control treatment, untreated heterozygous plants were pollinated with homozygous wild type pollen. Expected segregation ratios for the progeny of this cross would be 50% resistant and 50% susceptible. Here, the control progeny segregated at 54% resistant, statistically equal to the expected ratio of 50%. […] At the highest rate of glyphosate, the segregation of progeny was clearly disturbed. High rates applied at the V14 stage produced progeny nearly 100% resistant, while applications made before V14 were intermediate.

In assay [1] the test system is wild type gametes. The assay can be described thus: Treated heterozygous plants selfed; progeny leaf dip test. The conditions noted are these: all treatments except V12 at the lowest rate, non-treated 75% (FIG. 9).
Description: as §1, §2
The progeny of the various crosses from Example 2 were evaluated by two methods. In the first method, 25 seeds per replication (4 replications in total) were planted into rag dolls and grown at 25° C. in darkness four days. After this time, the rag dolls were transferred to a greenhouse to allow the shoots to turn green. […]

In assay [2] the test system is wild type gametes. The assay is described as follows: Treated hemizygous plants selfed; progeny scored for level of zygosity via QtPCR.
Description: as §2
In the second method of analysis, the glyphosate resistant selfed plants were grown in the field and leaf punched at the V8 stage of development. Leaf tissues were then frozen and scored for their level of zygosity according to standard PCR protocols for glyphosate resistance. The data from the progeny tests was arc sine transformed and submitted to a common analysis of variance. Since the F-test for overall treatments was highly significant, tests of significance between the controls and the various treatments were also conducted.
Plants hemizygous for glyphosate resistance were sprayed with glyphosate and then selfed. The progeny were then scored for level of zygosity via QtPCR. While the results from PCR corroborate data from the leaf dip assays, the magnitude of the response is less (as expressed in FIG. 10).

Consider `O=C(O)CNCP(=O)(O)O` [glyphosate], for which the “elimination of non-transgenic gametes” value with non-transgenic gametes (application at V12, 3 quarts/A, glyphosate resistant plants (FIG. 1)) is “eliminated most non-transgenic female and male gametes”; in the assay on non-transgenic gametes (application at V15 or later, 3 quarts/A, glyphosate resistant plants (FIGS. 2-5)), “primarily eliminated non-transgenic female gametes”. In the assay with wild type pollen (1.6 vs 3.2 l/Ha, V10, V12, V14, V10+V14), the “effect on wild type pollen: dependence on rate or time of application” value is “not affected by rate or time of application”. Also, the “rouging of wild type pollen (leaf dip test)” value in the assay on wild type pollen (V10, V12, V14, V10+V14, 1.6 and 3.2 l/Ha (FIG. 7)) is listed as “highly effective in rouging wild type pollen”. The “progeny resistant to glyphosate” value with wild type pollen (treated plants crossed to wild type ovules, all rates and timings, expected 50% if no effect (FIG. 7)) was roughly 100%; with wild type ovules (high rates applied at V14, expected 50% if no effect (FIG. 8)), roughly 100%; with wild type ovules (highest rate, applications made before V14 (FIG. 8)) it was “intermediate”; in the assay with wild type ovules (two pass program V10+V14 (FIG. 8)), roughly 100%; in the assay with wild type gametes [1] it was roughly 100%. Besides, the segregation of progeny entry in the assay with wild type ovules (treated at V10 and V12 at the lowest rate, pollinated with wild type pollen (FIG. 8)) was “segregated as expected if glyphosate had no affect on wild type ovules”. Further, in the assay on wild type gametes [2] (sprayed then selfed (FIG. 10)), the “ratio of homozygous wild type plants in selfed progeny (QtPCR)” value is on record as “significantly reduced the ratio of homozygous wild type plants”. The “percentage of homozygous glyphosate resistant plants in selfed progeny (QtPCR)” value in the assay with wild type gametes [2] (two pass applications at the highest rates (FIG. 10)) was “produced the greatest percentage of homozygous glyphosate resistant plants”.

The values are drawn from US20150082479A1, “CHEMICAL SELECTION OF RESISTANT GAMETES OF PLANTS IN THE FIELD” (PIONEER HI BRED INTERNATIONAL INC, priority 2008, published 2015).
